Measurements published in patent US20210322508A1, “PEPTIDES AND COMPOSITIONS FOR TARGETED TREATMENT AND IMAGING” (SIGNABLOK, INC., priority 2018, published 2021).
Non-standard residues stand in square brackets, D forms with d. Residues, ends and D or L forms follow the SMILES beside them. No end group written: not given here. Met(O) = CS(=O)CC[C@H](N)C(=O)O; PTX = not defined here

Columns and labels:
PVNS patients = details: cited from earlier work
[1] = test system: mice with collagen-induced arthritis (CIA); assay: collagen-induced arthritis (CIA) in mice; details: CIA mice
Excerpt: As described herein, starting on day 24 after immunization, mice with CIA were intraperitoneally (i.p.) administered daily for 14 consecutive days with vehicle (black diamonds), dexamethasone (black squares), GF9 (white circles), GF9-LPC (black circles) and GA/E31-LPC (half black half white circles) at indicated doses. Daily clinical scores were given on a scale of 0-5 for each of the paws on days 24-38. On day 38, mice were killed and the histopathological examination of mouse joints was performed. Histopathological scores of inflammation (I), pannus (P), cartilage damage (CD), bone resorption (BR) and periosteal new bone formation (PBF) are shown. Summed histopathology scores were calculated as the sum of all five histopathological parameters. All results are expressed as the mean±SEM (n=10 mice per group).
Mouse body weight (BW) was measured every other day from day 24 to day 38. Mean BW changes were calculated as a percentage of the difference between beginning (day 24) and final (day 38) BWs of the CIA mice intraperitoneally (i.p.) treated daily for 14 consecutive days with vehicle, dexamethasone, GF9, GF9-LPC and GA/E31-LPC at indicated doses. All results are expressed as the mean±SEM (n=10 mice per group).
Plasma was collected on days 24, 30 and 38 from arthritic mice treated with vehicle (black diamonds), GF9 (white circles), GF9-LPC (black circles) and GA/E31-LPC (half black half white circles). Plasma samples were analyzed for concentrations of interleukin-1b (IL-1b), IL-6, and colony-stimulating factor 1 (CSF1). Results are expressed as the mean±SEM (n=5 mice per group).

[2] = test system: DBA/1 mice with collagen-induced arthritis; assay: Collagen-induced arthritis (CIA) model; details: 5 mg/kg i.p. daily 14 days, free peptides
Procedure: Animal studies were performed by Bolder BioPATH (Boulder, Colo., USA). CIA was induced in male 6- to 7-week-old DBA/1 mice by immunization with bovine type II collagen. Briefly, mice were injected intradermally with 100 μl of Freund's complete adjuvant containing 250 μg of bovine type II collagen (2 mg/ml final concentration) at the base of the tail on day 0 and again on day 21. On day 24, mice were randomized by body weight into treatment groups. […] Mice were weighed on study days 24, 26, 28, 30, 32, 34, 36 and 38 (prior to necropsy). Daily clinical scores were given on a scale of 0-5 for each of the paws on days 24-38. On day 38, mice were killed for necropsy.
At the end of study, fore paws, hind paws and knees were harvested, fixed in 10% neutral buffered formalin for 1-2 days, and then decalcified in 5% formic acid for 4-5 days before standard processing for paraffin embedding. Sections (8 μm) were cut and stained with toluidine blue (T blue). Hind paws, fore paws and knees were embedded and sectioned in the frontal plane. Six joints from each animal were processed for histopathological evaluation. The joints were then assessed using 0-5 scale for inflammation, pannus formation, cartilage damage, bone resorption and periosteal new bone formation. A summed histopathology score (sum of five parameters, 0-25 scale) was also determined.
Animal studies were performed by Bolder BioPATH (Boulder, Colo., USA). CIA was induced in male 6- to 7-week-old DBA/1 mice by immunization with bovine type II collagen. Briefly, mice were injected intradermally with 100 μl of Freund's complete adjuvant containing 250 μg of bovine type II collagen (2 mg/ml final concentration) at the base of the tail on day 0 and again on day 21. On day 24, mice were randomized by body weight into treatment groups. […] Starting day 24, mice were injected i.p. intraperitoneally daily for 14 consecutive days with 5 mg/kg G-KV21, G-HV21, G-TE21, M-TK32 and M-VE32 or with PBS (vehicle). Mice were weighed on study days 24, 26, 28, 30, 32, 34, 36 and 38 (prior to necropsy). Daily clinical scores were given on a scale of 0-5 for each of the paws on days 24-38. On day 38, mice were killed for necropsy.

J774 macrophages = assay: in vitro macrophage uptake (endocytosis) of rho B-labeled peptides and lipopeptide complexes; type: cell-based, murine; details: 1 h pretreatment: 40 μM cytochalasin D, 400 μg/mL fucoidan, 10 μM BLT-1; uptake 4 h and 22 h
Procedure: In Vitro Macrophage Uptake of GF9HDL and GA/E31HDL A quantitative in vitro macrophage assay of endo-cytosis of rho B-labeled HDL-mimicking lipopeptide complexes by J774 macrophage was performed as described. (18-20) Briefly, BALB/c murine macrophage J774A.1 cells (ATCC) were cultured at 37° C. with 5% CO2 in Dulbecco's modified Eagle's medium (Cellgro Mediatech, Manassas, Va.) with 2 mM glutamine, 100 U/mL penicillin, 0.1 mg/mL streptomycin, and 10% heat-inactivated fetal bovine serum (Cellgro Mediatech) and grown to approximately 90% confluency in 12-well tissue culture plates (Corning Costar, Corning, N.Y.).
Cells were washed twice using phosphate-buffered saline and lysed using Passive Lysis Buffer (Promega, Madison, Wis.). Rho B fluorescence was measured in the lysates with 544-nm excitation and 590-nm emission filters, using a Fluoroscan Ascent CF fluorescence microplate reader (Thermo Labsystems, Vantaa, Finland). Protein concentrations in the lysates were measured using Bradford reagent (Sigma-Aldrich) and an MRX microplate reader (Dynex Technologies, Chantilly, Va.) according to the manufacturer's recommended protocol.

[3] = test system: Hepa 1-6 syngeneic hepatocellular carcinoma; details: orthotopic Hepa 1-6, Wu et al. 2019, cited from earlier work
human cancer xenografts = assay: PTX-TREM-1/TRIOPEP tumor suppression in human cancer xenografts; type: in vivo; details: free and SLP-bound form
Excerpt: Tumor suppression studies using PTX-TREM-1/TRIOPEP formulations in free or SLP-bound form can be performed in animal models of cancer similarly as described herein (see e.g., the examples 7 and 8). Female 6-8 week old NU/J mice can be obtained from the Jackson Laboratory (Bar Harbor, Me.) Human cancer cell lines including but not limited to human carcinoma, human pancreas or human breast cancer cell lines can be obtained from ATCC. […] Human cancer xenografts are established by injecting subcutaneously into the right flanks certain amounts of viable cells per mouse. […] When tumor grows to approximately 125 mm^3 (100-150 mm^3), animals are pair-matched by tumor size into treatment and control groups. Either PTX (TAXOL®; 30 mg/kg PTX) or PTX-TREM-1/TRIOPEP formulations in free (60 mg/kg PTX) or SLP-bound (30 mg/kg PTX) are intravenously administered to the animals via tail vein. Clinical observations, body weights and tumor volume measurements are made twice a week once tumors become measureable. It should be noted that TAXOL® is formulated with a detergent Cremophor that in itself is cytotoxic and is also the source of numerous side effects during chemotherapy. The Cremophor content of TAXOL® is about 80× that of paclitaxel per ml.

TGCT patients = details: cited from earlier work
[4] = molecular target: T1, TREM-1 (triggering receptor expressed on myeloid cells-1) on murine J774A.1 macrophages (mouse, UniProt Q9JKE2 21-230); assay: confocal immunofluorescence on macrophages, labelled peptide against TREM-1 staining; colocalisation only, no direct binding assay
T1 construct: whole, on cells; the cells are murine
T1 sequence (looked up): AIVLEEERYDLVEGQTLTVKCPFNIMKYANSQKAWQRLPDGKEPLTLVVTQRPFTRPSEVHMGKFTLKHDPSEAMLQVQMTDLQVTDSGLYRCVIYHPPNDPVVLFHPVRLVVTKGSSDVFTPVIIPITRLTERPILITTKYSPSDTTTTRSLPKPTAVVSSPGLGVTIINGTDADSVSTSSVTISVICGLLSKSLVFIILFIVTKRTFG
Procedure: (§1) Immunofluorescence analysis of TREM-1 and TREM-1/TRIOPEP in the cell membrane was performed using the standard, well-known in the art methods as described in Shen and Sigalov J Cell Mol Med 2017, 21:2524-2534, and Rojas et al. 2018, herein incorporate by reference.
(§2) BALB/c murine macrophage J774A.1 cells were grown at 37° C. in six-well tissue culture plates containing glass coverslips. After reaching target confluency of approximately 50%, cells were incubated for 6 h at 37° C. with Dylight 488-labeled GF9 or TREM-1/TRIOPEP-sSLP that contained Dylight 488-labeled GE31. TREM-1 staining was performed was performed using an Alexa 647-labeled rat anti-mouse TREM-1 antibody (Bio-Rad, Hercules, Calif.). ProLong Gold Antifade DAPI (4′,6′-diamidino-2-phenylindole) mounting medium was used to mount coverslips, and the slides were photographed using an Olympus BX60 fluorescence microscope. Confocal imaging was performed with a Leica TCS SP5 II laser scanning confocal microscope.

[5] = molecular target: T1, TREM-1 (triggering receptor expressed …); assay: confocal immunofluorescence on macrophages; colocalisation only, no direct binding assay
Procedure: as §1, §2

Cc1ccc(NC(=O)c2ccc(CN3CCN(C)CC3)cc2)cc1Nc1nccc(-c2cccnc2)n1 [Imatinib]
symptomatic improvement (PVNS patients; 16 of 22 patients assessable for symptoms): 73% | overall response rate per RECIST (PVNS patients; 27 evaluable patients, Cassier et al. 2012): 19% | stable disease (PVNS patients; Twenty of 27 patients): 74%

CSCC[C@H](NC(=O)[C@H](CCC(=O)O)NC(=O)[C@H](CCC(=O)O)NC(=O)[C@H](CCC(N)=O)NC(=O)[C@H](Cc1c[nH]c2ccccc12)NC(=O)[C@H](CCCCN)NC(=O)[C@H](CCCCN)NC(=O)[C@H](CCC(N)=O)NC(=O)[C@H](Cc1ccccc1)NC(=O)[C@H](CC(=O)O)NC(=O)[C@H](CC(=O)O)NC(=O)[C@H](CC(C)C)NC(=O)[C@H](Cc1ccc(O)cc1)NC(=O)[C@@H]1CCCN1C(=O)[C@H](Cc1ccccc1)NC(=O)[C@H](Cc1ccc(O)cc1)NC(=O)[C@H](CCCCN)NC(=O)[C@H](CC(C)C)NC(=O)[C@@H](NC(=O)[C@@H]1CCCN1C(=O)[C@@H](NC(=O)[C@H](CCCCN)NC(=O)[C@H](Cc1c[nH]c2ccccc12)NC(=O)[C@@H](N)CCSC)[C@@H](C)O)[C@@H](C)O)C(=O)N[C@@H](CCC(=O)O)C(=O)N[C@@H](CC(C)C)C(=O)N[C@@H](Cc1ccc(O)cc1)C(=O)N[C@@H](CCCNC(=N)N)C(=O)N[C@@H](CCC(N)=O)C(=O)N[C@@H](CCCCN)C(=O)N[C@H](C(=O)N[C@@H](CCC(=O)O)C(=O)O)C(C)C [M-VE32] (H-MWKTPTLKYFPYLDDFQKKWQEEMELYRQKVE-OH)
tolerability in arthritic mice (body weight changes) ([1]; day 24 to day 38): well-tolerated by arthritic mice | arthritis (clinical arthritis score) ([1]; treatment days 24-38): ameliorate the disease | CIA severity; bone and cartilage damage [2]: ameliorates CIA and protects against bone and cartilage damage

fucoidan [reference compound]
effect of scavenger receptor inhibitor on macrophage uptake of GF9-HDL and GA/E31-HDL (J774 macrophages): substantially suppressed endocytosis of TREM-1 inhibitor complexes at 22 hours but not at 4 hours

CCCCCCC1CCCC1=NNC(N)=S (stereo not shown) [BLT-1, Blocker of lipid transport 1, reference compound]
effect of scavenger receptor inhibitor on macrophage uptake of GF9-HDL and GA/E31-HDL (J774 macrophages): similarly inhibited the uptake of the complexes at both time points but to a lesser extent

GLLSKSLVF [mGF9, murine GF9 peptide]
tumor growth and survival, combined with anti-PD-L1 antibody ([3]; 25 mg/kg i.p. daily): synergistically inhibits tumor growth and improves survival

C=C1[C@@H](C)[C@H]2[C@H](Cc3ccccc3)NC(=O)[C@]23[C@H](OC(C)=O)/C=C/[C@@](C)(O)C(=O)[C@@H](C)C/C=C/[C@H]3[C@@H]1O [cytochalasin D, reference compound]
effect of scavenger receptor inhibitor on macrophage uptake of GF9-HDL and GA/E31-HDL (J774 macrophages): significantly inhibited

GLLSGSLVF [mGF9-G, control murine GF9-G peptide, reference compound]
tumor growth (and survival), standalone treatment [3]: do not affect tumor growth and survival

PTX-GFLSKSLVFPLGEEMRDRARAHVDALRTHLA ({PTX}-GFLSKSLVFPLGEEMRDRARAHVDALRTHLA; reading uncertain; also: printed as PTX-GFLSKSLVFPLGEEMRDRARAHVDALRTHLA) [PTX-TREM-1/TRIOPEP]
anticancer activity (tumor inhibition, survival rate) as compared to PTX (human cancer xenografts): anticipated to have a significantly higher anticancer activity | tolerability in cancer mice as compared to PTX (human cancer xenografts): anticipated to be substantially better tolerated by cancer mice

FC(F)(F)c1ccc(CNc2ccc(Cc3c[nH]c4ncc(Cl)cc34)cn2)cn1 [Pexidartinib]
tumor volume (TGCT patients; Phase 2 study): prolonged regression in tumor volume in most patients | liver toxicity (TGCT patients; Phase 3 study suspended): two reported cases of nonfatal, serious liver toxicity | partial response (TGCT patients; extension study, 23 patients, Tap et al. 2015): 12 patients | stable disease (TGCT patients; extension study, 23 patients): 7 patients

B1: TREM-1-related trifunctional peptide (TREM-1/TRIOPEP) GE31, methionine sulfoxidized (peptide)
peptide: GFLSKSLVFPYLDDFQKKWQEE[Met(O)]ELYRQKVE
modifications: not fully specified; printed as GFLSKSLVFPYLDDFQKKWQEEM(O)ELYRQKVE; also: delivered in spherical synthetic lipopeptide particles (TREM-1/TRIOPEP-sSLP)
notes: In the cytokine assays it was used as an equimolar mixture with GA31; also called TREM-1 modulatory peptide GE31
binding result [4]: binds

B2: TREM-1 inhibitory peptide GF9 (GFLSKSLVF, human TREM-1 213-221) (peptide)
peptide: GFLSKSLVF
modifications: not fully specified
notes: also called TREM-1 modulatory peptide GF9
binding result [5]: binds
